Measurements: US4837342A, “Prostacyclin analogue, and blood circulation improving agent and anti-ulcer composition containing it as active ingredient” (Sagami Chemical Research Center, priority 1986, dated 1989)
Where two headings read alike, the source gives them in different places.

What was measured:
[1] = system: Indomethacine ulcer; test: Indomethacine ulcer inhibiting activity; format: in vivo, Male wister rats; details: rat
Text: Indomethacine ulcer inhibiting activity
Male wister rats having a weight of from 210 to 270 g were used. The rats were starved in the same manner as in Test Example 6. […] Three hours after the indomethacine administration, the test compound or PGE2 was again orally administered in the same amount. Six hours after the first administration of indomethacine, each rat was killed by cervical bertebral luxation. The stomach was taken out and fixed, and the ulcer index was obtained, in the same manner as in Test Example 6.
The indomethacine ulcer inhibiting activity of a test compound was represented by the inhibiting percentage (i.e. the inhibiting percentage of the ulcer index of the treated group to the ulcer index of the non-treated group). To the non-treated group, the solvent was administered.

[2] = system: Ethanol ulcer; test: Ethanol ulcer inhibiting activity; format: in vivo, Male wister rats; details: rat; for ED50: po, P.O., 30 minutes before 99.5% ethanol; for Ethanol ulcer inhibition: oral administration of 30 μg/kg
Experimental: Ethanol ulcer inhibiting activity
Male wister rats having a weight of from 170 to 270 g were put into individual cages and starved for 24 hours. During this starvation period, the rats were allowed to drink water freely. A test compound or PGE2 as a comparative compound was orally administered in an amount of 3, 10 or 30 μg/kg, and 30 minutes later, 1 ml of 99.5% ethanol was orally administered to each rat. One hour after the ethanol administration, each rat was filled by cervical vertebral luxation, and the stomach was taken out. A 1% formaline solution was injected into the stomach in an amount of about 8 ml, and the stomach was fixed in the formaline solution for 30 minutes. After the fixing, the stomach was severed along the greater curvature, and the mucous membrane surface of the stomach was gently washed with flowing water. Then, the total length of damages appearing on the gastric glandular portion was obtained and used as the ulcer index.
The ethanol ulcer inhibiting activity of a test compound was represented by ED50 (i.e. the dose of the test compound at which the ulcer was inhibited by 50% relative to the ulcer index of the non-treated group). To the non-treated group, the solvent was administered.

[3] = system: Hydrochloric acid ulcer; test: Hydrochloric acid ulcer inhibiting activity; format: in vivo, wister rats; details: rat; oral administration of 30 μg/kg; 0.6N hydrochloric acid; read-out: Hydrochloric acid ulcer inhibiting activity, Inhibiting rate
Experimental: Hydrochloric acid ulcer inhibiting activity
Male wister […] having a weight of from 190 to 240 g were used. The rats were starved in the same manner as in Test Example 6, and the test compounds and PGE2 were, respectively, orally administered in an amount of 30 μg/kg, and 30 minutes later, 1 ml of 0.6N hydrochloric acid was orally administered. Thirty minutes after the hydrochloric acid administration, each rat was killed by cervical vertebral luxation. Then, the stomach was taken out and fixed, and the ulcer index was obtained, in the same manner as in Test Example 6. The hydrochloric acid ulcer inhibiting activity of a test compound was represented by the inhibiting percentage (i.e. the percentage of the ulcer index of the treated group to the ulcer index of the non-treated group). To the non-treated group, the solvent was administered.

[4] = system: vertebral artery; test: Blood flow-increasing activity in the vertebral artery, anesthetized dog; format: in vivo, crossbred adult dog; details: for ED50: Canis lupus familiaris, papaverine hydrochloride 100 μg/kg = 100%; for Activity ratio, blood flow-increasing activity in vertebral artery: relative to prostacyclin = 1
Text: Blood flow-increasing activity in the vertebral artery
A made or female crossbred adult dog having a weight of from 8 to 13 kg was anesthetized by intravenous administration of sodium Pentobarbital and subjected to thoractomy along the mediam line under artificial respiration to expose the left vertebral artery. Under sodium peparin treatment, a polyethylene cannula was inserted into the vertebral artery, and a blood flow-measuring probe was attached to its other end, to which a blood circulation tube led from the left femoral artery was connected, whereby the blood flow in the vertebral artery was measured by using an electromagnetic flow meter. The test compound was injected into the vertebral artery by near arterial injection, and the blood flow-increasingactivity in the vertebral artery was represented by ED50 (i.e. the dose of a test compound at which the blood flow increases by 50%, as evaluated on the basis that the blood flow increase (representing substantially the maximum reaction) by the administration of 100 μg/kg papaverine hydrochloride into the vertebral artery, is evaluated to be 100%).

[5] = system: Blood platelet (Collagen agglutination); test: Blood platelet agglutination inhibiting activity (collagen-induced), washed rabbit platelet suspension; format: cell-based, rabbit (Japanese white male rabbits); details: for IC50: Oryctolagus cuniculus, Platelet, collagen 1 μg/ml, concentration suppressing agglutination to 50%, read-out: Platelet agglutination inhibiting activity ED50, Collagen agglutination; for Activity ratio, platelet agglutination inhibiting activity, Collagen agglutination: relative to prostacyclin = 1
Experimental: (§1) Blood platelet aggutination inhibiting activity
(§2) Japanese white male rabbits having a weight of from 2.0 to 2.5 kg were used.
(§3) Under anesthesia with sodium Pentobarbital, blood was sampled from the carotid artery, and mixed with a 1/7 volume of an anticoagulant citric acid dextrose solution. Then, the mixture was subjected to centrifugal separation at 140×g for 15 minutes, whereupon the supernatant (platelet rich plasma:PRP) was obtained. PRP was subjected to centrifugal separation at 1,300×g for 7 minutes. The blood platelet pellets thus obtained were washed with a HEPES buffer solution (pH 6.5) for washing blood platelets, and subjected to centrifugal separation at 1,300×g for 7 minutes. The blood platelet pellets washed twice under such condition, were suspended in a suspending liquid (a buffer solution for washing blood platelets, which contains 0.1% of human fibrinogen, 1.8 mM of CaCl2 and 1.2 mM of MgCl2) to obtain a blood platelet suspension having a concentration of from 5×10^8 to 8×10^8 platelets/ml.
(§4) The platelet agglutination ability was measured by means of an agglutination meter. To 380 μl of the platelet suspension, 10 μl of a test compound or a solvent as the control, was added. Three minutes later, 10 μl of a platelet agglutinating substance (10 μM of ADP or 1 μg/ml of collagen, as the final concentration) was added thereto to induce agglutination.
(§5) The blood platelet agglutination inhibiting activity of each test compound was represented by ED50 (i.e. the concentration of the test compound where the platelet agglutination is suppressed to 50%).

[6] = system: femoral artery; test: Blood flow-increasing activity in the femoral artery, anesthetized dog; format: in vivo, crossbred adult dog; details: for ED50: Canis lupus familiaris, papaverine hydrochloride 100 μg/kg = 100%; for Activity ratio, blood flow-increasing activity in femoral artery: relative to prostacyclin = 1
Experimental: Blood flow-increasing activity in the femoral artery
A male or female crossbred adult dog having a weight of from 8 to 13 kg, was anesthetized by intravenous administration of sodium Pentobarbital. Then, a tracheal cannula was inserted, and artificial respiration was conducted. The blood flow in the femoral artery was measured by inserting the annula into the left femoral artery under sodium heparin treatment and providing a blood flow measuring probe at it other end, and by using an electromagnetic flow meter. The test compound was injected into the femoral artery by near arterial injection, and the blood flow-increasing activity in the femoral artery was represented by ED50 (i.e. the dose of a test compound at which the blood flow increases by 50%, as evaluated on the bais that the blood flow increase (representing substantially the maximum reaction) by the administration of 100 μg/kg of papaveline hydrochloride into the femoral artery, is evaluted to be 100%).

[7] = system: Blood platelet (ADP agglutination); test: Blood platelet agglutination inhibiting activity (ADP-induced), washed rabbit platelet suspension; format: cell-based, rabbit (Japanese white male rabbits); details: for IC50: Oryctolagus cuniculus, Platelet, ADP 10 μM, concentration suppressing agglutination to 50%, read-out: Platelet agglutination inhibiting activity ED50, ADP agglutination; for Activity ratio, platelet agglutination inhibiting activity, ADP agglutination: relative to prostacyclin = 1
Experimental: as §1, §2, §3, §4, §5

[8] = system: coronary artery; test: Blood flow-increasing activity in the coronary artery, anesthetized dog; format: in vivo, crossbred adult dog; details: for ED50: Canis lupus familiaris, reactive hyperemia = 100%; for ED50 / Blood flow increase in coronary artery: dog, near arterial injection; for Activity ratio, blood flow-increasing activity in coronary artery: relative to prostacyclin = 1; for Blood flow increase in coronary artery: at 3 μg/kg
Experimental: Blood flow-increasing activity in the coronary artery
A crossbred adult dog having a weight of from 9 to 15 kg was anesthetized with sodium Pentobarbital and subjected to thoractomy under artificial respiration. After pericardiectomy, the frontal descending branch of the left coronary artery was separated from the surrounding tissues, and a blood flow-measuring probe was attached thereto under sodium heparin treatment. The coronary blood flow was measured by using an electromagnetic flow meter. The test compound was injected into the coronary artery by near arterial injection, and the blood flow-increasing activity in the coronay artery was represented by ED50 (i.e. the dose of a test compound at which the blood flow increases by 50%, as evaluated on the basis that the blood flow increase by the reactive hyperemia caused by releasing the blood flow of the coronary artery after blocking it for 15 seconds, is evaluated to be 100%).

[9] = system: diastolic blood pressure; test: Hypotensive activity, anesthetized dog; format: in vivo, crossbred adult dog; details: for Activity ratio, hypotensive activity: relative to prostacyclin = 1; for ED (50 mmHg): Canis lupus familiaris, iv
Experimental: A male or female crossbred adult dog having a weight of from 9 to 14 kg was anesthetized by intraveous administration of sodium Pentobarbital. Then, the left carotid was exposed under artificial respiration, and the blood pressure was measured by using an electric blood pressure meter. […]

[10] = background; cited from earlier work
[11] = oral administration of 60 μg/kg twice
[12] = dog, at 3 μg/kg, near arterial injection

| SMILES | ED50 [2] [µg/kg] | inhibition in vivo at 0.03 mg/kg [3] [%] | ED50 ([4]; dog, near arterial injection) [µg/kg] | Activity ratio, blood flow-increasing activity in vertebral artery [4] | IC50 [5] [nM] | Activity ratio, platelet agglutination inhibiting activity, Collagen agglutination [5] | ED50 ([6]; dog, near arterial injection) [µg/kg] | Activity ratio, blood flow-increasing activity in femoral artery [6] | IC50 [7] [nM] | ED50 [8] [µg/kg] | Activity ratio, blood flow-increasing activity in coronary artery [8] | Hypotensive activity, blood pressure decrease ([9]; dog, at 10 μg/kg i.v.) [mmHg] | Activity ratio, hypotensive activity [9] | Indomethacine ulcer inhibition (in words) [1, 11] | Ethanol ulcer inhibition [2] [%] | Activity ratio, platelet agglutination inhibiting activity, ADP agglutination [7] | also measured |
| --- | --- | --- | --- | --- | --- | --- | --- | --- | --- | --- | --- | --- | --- | --- | --- | --- | --- |
| CCCCC[C@H](O)/C=C/[C@H]1[C@H](O)CC(=O)[C@@H]1C/C=C\CCCC(=O)O [PGE2, reference compound] | 9.03 | 61.6 |  |  |  |  |  |  |  |  |  |  |  |  |  |  | Indomethacine ulcer inhibiting activity, Inhibiting rate ([1]; oral administration 30 μg/kg twice): 98.3% |
| CCC#CCC(C)[C@H](O)/C=C/[C@@H]1[C@H]2CC=C(CCCCC(=O)O)C[C@H]2C[C@H]1O (stereo partly drawn) [(i)] | 5.89 | 17.4 | 0.8 | 1/18 | 24 | 1/7 | 0.56 | 1/23 | 22 | 3.6 | 1/360 | 24.5 | 1/152 |  |  |  | Indomethacine ulcer inhibiting activity, Inhibiting rate ([1]; oral administration of 10 μg/kg twice (so in the source)): 49.5%; Hypotensive activity, blood pressure decrease ([9]; at 60 μg/kg i.v. (so in the source), Table 2): 24.5 mmHg |
| CCCCC[C@H](O)/C=C/[C@@H]1[C@H]2CCC(CCCCC(=O)O)=C[C@H]2C[C@H]1O [(e), 3-(4-carboxybutyl)-7-exo-(3α-hydroxy-trans-1-octenyl)-8-enodo-hydroxy-cis-bicyclo[4,3,0]nona-2-ene] |  | 18.3 | 2.5 | 1/57 | 280 | 1/82 | 0.46 | 1/19 | 290 | 3.8 | 1/380 | 17.9 | 1/213 | Certain inhibition | 28.5 | 1/100 |  |
| CCCCC[C@H](O)/C=C/[C@@H]1[C@H]2CC(CCCCC(=O)O)=C[C@H]2C[C@H]1O [isocarbacyclin, 9(O)-methano-Δ^6(9α) -PGI1] |  |  |  |  |  |  |  |  |  |  |  |  |  |  |  |  | Chemical stability (in words) [10]: adequately chemically stable |
| O=C(O)CCC/C=C1\C[C@H]2C[C@@H](O)[C@H](/C=C/[C@@H](O)C3CCCC3)[C@H]2C1 [OP-41483] |  |  |  |  |  |  |  |  |  |  |  |  |  |  |  |  | Chemical stability (in words) [10]: chemically stable |
| CCC#CCC(C)[C@H](O)/C=C/[C@@H]1[C@H]2CCC(COCCC(=O)O)=C[C@H]2C[C@H]1O (stereo partly drawn) [(h)] |  | 21.3 |  |  |  |  |  |  | > 3000 |  |  | 15 |  | Certain inhibition | 32.5 |  | Blood flow increase in vertebral artery [4, 12]: 28.5%; Blood flow increase in femoral artery [6, 12]: 31.7%; Blood flow increase in coronary artery [8]: 25% |
| CCCCC[C@H](O)/C=C/[C@@H]1[C@H]2CCC(CCCC(=O)O)=C[C@H]2C[C@H]1O [(a), 3-(3-carboxypropyl)-7-exo-(3α-hydroxy-trans-1-octenyl)-8-endo-hydroxy-cis-bicyclo[4,3,0]nona-2-ene] |  | 15.3 | 0.44 | 1/10 | 970 | 1/285 | 0.19 | 1/8 | 1300 |  | About 1/500 | 20 | 1/192 | Certain inhibition | 20.0 | 1/455 | Blood flow increase in coronary artery [8]: 37.6% |
| CCC#CCC(C)[C@H](O)/C=C/[C@@H]1[C@H]2CCC(CCOCC(=O)O)=C[C@H]2C[C@H]1O (stereo partly drawn) [(g), 3(3-oxa-4-carboxybutyl)-7-exo-(3α-hydroxy-4,8-dimethyl-1-trans-octen-6-ynyl)-8-endo-hydroxy-cis-bicyclo[4,3,0]nona-2-ene] | 5.38 | 42.1 | 2 | 1/45 |  |  | 0.72 | 1/30 | 38 | 0.55 | 1/55 |  | 1/67 |  |  | 1/13 | Indomethacine ulcer inhibiting activity, Inhibiting rate [1, 11]: 57.3%; ED (50 mmHg) ([9]; Table 2, read-out: Hypotensive activity ED50 mmHg): 16.1 µg/kg; ED (50 mmHg) ([9]; dog, femoral vein, Table 1, read-out: Hypotensive activity ED50 (dose reducing diastolic blood pressure by 50 mmHg)): 16 µg/kg |
